Test [1] relates to RAW264.7. Description: Anti-inflammatory activity in LPS induced mouse RAW264.7 cells assessed as inhibition of NO production by MTT method. It is filed as functional, cell-based.
Test [2] relates to HL-60. Description: Cytotoxicity against human HL-60 cells assessed as inhibition of cell growth. It is filed as functional, cell-based.
Test [3] relates to L1210. Description: Cytotoxicity against mouse L1210 cells assessed as reduction in cell viability. It counts as functional, cell-based.
The subject of test [4] is KB. Description: Cytotoxicity against human KB cells assessed as reduction in cell viability. It counts as functional, cell-based.
The test system of test [5] is CCRF S-180. Description: Cytotoxicity against mouse CCRF S-180 cells incubated for 48 hrs by MTT based colorimetry assay. It counts as functional, cell-based. The conditions noted are these: CCRF S-180, 48 h.
The test system of test [6] is HepG2. The experiment in a line: Cytotoxicity against human HepG2 cells incubated for 48 hrs by MTT based colorimetry assay. It is filed as functional, cell-based. Particulars: HepG2, 48 h.
The test system of test [7] is MGC-803. Description: Cytotoxicity against human MGC-803 cells incubated for 48 hrs by MTT based colorimetry assay. Particulars: MGC-803, 48 h. It is filed as functional, cell-based.
A short description of test [8]: Cytotoxicity against human 6T-CEM cells. It counts as functional, cell-based.
Test [9] concerns RAW264.7. Description: Anti-inflammatory activity in LPS induced mouse RAW264.7 cells assessed as inhibition of NO production pretreated for 1 hr followed by LPS stimulation and measured after 18 hrs by MTT assay. It counts as functional. The conditions noted are these: time 19 hrs, read-out: ED50 (the source's name).
In test [10] the test system is B16-F10. Description: Cytotoxicity against mouse B16-F10 cells incubated for 48 hrs by WST-8 assay. It is filed as functional, cell-based. The conditions noted are these: B16-F10, 48 h.
The subject of test [11] is HL-60. Description: Cytotoxicity against human HL-60 cells incubated for 48 hrs by WST-8 assay. It is filed as functional, cell-based. Particulars: HL-60, 48 h.
For test [12], the system named is HeLa. The experiment in a line: Cytotoxicity against human HeLa cells incubated for 48 hrs by WST-8 assay. It is filed as functional, cell-based.
Test [13] deals with HL-60. Description: Cytotoxicity against human HL-60 cells. It counts as functional, cell-based.
Test [14] has as its system CCRF-CEM. The experiment in a line: Cytotoxicity against human CCRF-CEM cells. It counts as functional, cell-based.
Test [15] concerns PC-12. The experiment in a line: Neuroprotective activity against glutamate-induced neurotoxicity in rat PC-12 cells. It counts as functional, cell-based.
Test [16] has as its system Bel-7402. Description: Cytotoxicity against human Bel-7402 cells incubated for 72 hrs by CCK8 assay. It is filed as functional, cell-based. The conditions noted are these: Bel-7402, 72 h.
For test [17], the system named is HT-29. Description: Cytotoxicity against human HT-29 cells incubated for 72 hrs by CCK8 assay. It counts as functional, cell-based. Particulars: HT-29, 72 h.
For test [18], the system named is HL-60. Description: Cytotoxicity against human HL-60 cells incubated for 72 hrs by CCK8 assay. It counts as functional, cell-based. Particulars: HL-60, 72 h.
In test [19] the test system is A549. The experiment in a line: Cytotoxicity against human A549 cells incubated for 72 hrs by CCK8 assay. Particulars: A549, 72 h. It counts as functional, cell-based.
Test [20] deals with Plasmodium falciparum. The experiment in a line: Antiplasmodial activity against Plasmodium falciparum. It is filed as functional, organism-based.
Test [21] concerns RAW264.7. The experiment in a line: Anti-inflammatory activity in LPS induced mouse RAW264.7 cells assessed as inhibition of NO production measured after 24 hrs by CCK-8 method. It is filed as functional, cell-based. The conditions noted are these: RAW264.7, 24 h.

≈ marks a conversion by molar mass, not a printed value.

Turning to `C=C1CC[C@H]2C(=C)CC[C@@H]3[C@H](OC(=O)[C@]3(CC(C)O)C[C@@H]3C(=O)O[C@H]4[C@H]3CCC(=C)[C@@H]3CCC(=C)[C@@]34C)[C@@H]12` (some centres not stated), in test [1], the IC50 was determined as 2.46 µM. Take `C[C@H](O)CC[C@H]1[C@@H]2C[C@H]3[C@@H](C[C@]12C)OC(=O)C31CC2(CO1)C(=O)O[C@@H]1C[C@]3(C)[C@@H](CC[C@@H](C)O)[C@@H]3C[C@@H]12` (some centres not stated): in test [2], the IC50 was 8.7 µM. Take `C=C1CCC[C@]2(C)CC[C@@H](C(C)C)[C@H](NC(=O)N(CC(=O)O)[C@@H]3[C@H]4C(=C)CCC[C@]4(C)CC[C@H]3C(C)C)[C@@H]12`: the IC50 in [3] and in test [4] was 2.6 µg/mL (≈ 4.94 µM) each time. With `CC(=O)C1=C(Oc2oc3cc4c(c(C)c3c2C)[C@@H](C)CCC4)C[C@H]2CCC[C@H](C)[C@@]2(C)C1`, the IC50 in [5], in test [6] and in test [7] was 11.9 µM each time.

For the compound `C=C1C(=O)O[C@H]2C[C@H](C)C3=C(C[C@H]12)[C@@]1(C)OC(=O)[C@@H](c2ccc(C)c([C@H](C)CCCOC(C)=O)c2)C[C@H]1[C@H]3OC(C)=O`, in [8], it took 4.4 µM to reach half-maximal inhibition (IC50). Take `C=C(C)[C@@H]1c2oc3c(c2C(=O)C2=CCC[C@@H](C)[C@@]21C)C(=O)C[C@]1(C)C3=CCC[C@H]1C`: the EC50 in test [9] was 23.6 µM. Turning to `C=C1CCC[C@]2(C)CC[C@@H](C(C)C)[C@H](NC(=O)NC(C)(C)[C@@H]3C=C4[C@@H](C)CCC[C@]4(C)CC3)[C@@H]12`, the IC50 in [3] and in [4] was 2.6 µg/mL (≈ 5.55 µM) throughout. Take `C=C1C(=O)O[C@@H]2/C=C(\C)CC/C=C(/C(=O)OC)[C@H](OCC)[C@@H](OC(=O)[C@](C)(O)[C@H](C)OC(=O)/C3=C/CC/C(C)=C/[C@H]4OC(=O)C(=C)[C@@H]4[C@H](OC(=O)/C(C)=C\C)C3)[C@@H]12`: the IC50 in test [10], in [11] and in test [12] was 0.2 µM each time. The compound `C=C1C(=O)O[C@H]2C[C@H](C)C3=C(C[C@H]12)[C@]1(C)C[C@H]3C[C@@]12C(=O)O[C@@H]1C[C@H](C)C(CC[C@H](C)O)=CC[C@@H]12` registered an IC50 in test [13] of 4.9 µM. As for `C=C1C(=O)O[C@H]2[C@H]1[C@H](OC(=O)[C@](C)(O)[C@H](C)OC(=O)/C1=C/CC/C(C)=C/[C@H]3OC(=O)C(=C)[C@@H]3[C@H](OC(=O)/C(C)=C\C)C1)[C@@H](OCC)/C(C(=O)OC)=C\CC[C@]1(C)O[C@@H]21`, the IC50 in test [10], in test [11] and in test [12] was 0.2 µM throughout.

On to `C=C1C(=O)O[C@H]2C[C@H](C)C3=C(C[C@H]12)[C@@]1(C)C[C@@H]3C[C@@]12C(=O)O[C@@H]1C[C@@]3(C)[C@@H](O)C[C@@H](O)C(=C)[C@@H]3C[C@@H]12`, for which the IC50 in [14] stood at 0.14 µM. On the same count and under the same terms, as for `C=C1C(=O)O[C@H]2C[C@H](C)[C@@]34C[C@@H](C[C@@]35C(=O)O[C@@H]3C[C@@]6(C)[C@@H](O)C[C@@H](O)C(=C)[C@@H]6C[C@@H]35)C(C)=C4C[C@H]12`, the figure is 0.14 µM. On the same count and under the same terms, as for `C=C1C(=O)O[C@H]2C[C@H](C)[C@@]34C[C@@H](C[C@@]35C(=O)O[C@H]3CC(=C)[C@H]6CC[C@@](C)(O)[C@@H]6C[C@@H]35)C(C)=C4C[C@H]12`, the figure is 2.03 µM. As for `C=C1CC[C@H]2C(=C)CC[C@@H]3[C@H](OC(=O)[C@]3(CC(C)=O)C[C@@H]3C(=O)O[C@@H]4/C=C(/C)CC/C=C(/C)CC[C@@H]34)[C@@H]12`, the IC50 in test [1] was found to be 1.88 µM. The compound `C=C1CC[C@H]2C(=C)CC[C@@H]3[C@H](OC(=O)[C@]3(CC(C)=O)C[C@@H]3CC[C@H]4C(=C)CC[C@H]5C(=C)C(=O)O[C@@H]5[C@@H]34)[C@@H]12` yielded an EC50 in test [15] of 2.11 µM. `C=C1CC[C@H]2C(=C)C(=O)O[C@@H]2[C@@H]2[C@H]1[C@@H](C[C@@H]1C(=O)C3C4[C@H]1[C@H]1OC(=O)C(=C)[C@@H]1CC[C@]4(O)CC[C@]31C(=O)C[C@H]3C(=C)CC[C@H]4C(=C)C(=O)O[C@@H]4[C@H]31)C(=O)[C@@]2(O)CC[C@@H]1C(=O)C[C@H]2C(=C)CC[C@H]3C(=C)C(=O)O[C@@H]3[C@@H]12` (some centres not stated): the IC50 in [16], in test [17], in test [18] and in test [19] was 2 µM each time. Take `C/C=C(\C)C(=O)O[C@@H]1CC([C@H](O)[C@]2(C)C=C3OC(=O)C4=C3[C@H]2[C@H]2OC(=O)[C@H](C)[C@@H]2[C@H](OC(=O)/C(C)=C/C)C4)=C2C(=O)C=C(C)[C@@H]2[C@H]2OC(=O)[C@H](C)[C@@H]21`: the IC50 in test [20] came out at 2 µM.

In test [14], `C=C1C(=O)O[C@H]2C[C@H](C)[C@@]34C[C@@H](C[C@@]35C(=O)O[C@H]3C=C(C)[C@H]6CC[C@@](C)(O)[C@@H]6C[C@@H]35)C(C)=C4C[C@H]12` registered an IC50 of 2.03 µM. Take `C=C1CC[C@H]2C(=C)CC[C@@H]3[C@H](OC(=O)[C@H]3C[C@@]3(CC(C)=O)C(=O)O[C@@H]4C/C(C)=C\CC/C=C(/C)C[C@H]43)[C@@H]12`: the IC50 in [1] is 4.89 µM. The compound `C=C1C(=O)O[C@H]2C[C@H](C)C3=C(C[C@H]12)[C@@]1(C)C[C@H]3C[C@@]12C(=O)O[C@@H]1C[C@@]3(C)[C@@H](O)C[C@@H](O)C(=C)[C@@H]3C[C@@H]12` displayed an IC50 in test [14] of 0.14 µM. Take `COC(=O)/C(C)=C1\C(=O)[C@H](O)[C@@]2(C)[C@@H]3C[C@@H]3C3=C[C@@]4(C)[C@@]5(C)[C@@H]6C[C@@H]6[C@@]6(O)COC(=O)/C(C)=C/COC(=O)C(O)CC(=O)OCC7=C(C[C@@H]65)[C@@]4(OC7=O)[C@@H]1[C@]32OO` (some centres not stated): inhibition in test [13] was half-maximal at 0.03 µM (IC50).

In test [13], `C=C1C(=O)O[C@H]2C[C@H](C)C3=C(C[C@H]12)[C@]1(C)C[C@H]3C[C@@]12C(=O)O[C@@H]1C[C@H](C)C(CCC(C)=O)=CC[C@@H]12` displayed an IC50 of 7.5 µM. With `C=C1CCC[C@]2(C)CC[C@@H](C(C)C)[C@H](NC(=O)[C@H]3C[C@H](O)C[C@@H](C(=O)N[C@H]4[C@H](C(C)C)CC[C@@]5(C)CCCC(=C)[C@]45C)N3CCC(=O)OC)[C@@H]12`, in test [4], the IC50 came out at 10.6 µg/mL (≈ 15.2 µM). Compound `C=C1C(=O)O[C@H]2C[C@H](C)C3=C(C[C@H]12)[C@]1(C)C[C@@H]3C[C@@]12C(=O)O[C@@H]1C[C@@]3(C)[C@@H](O)C[C@@H](O)C(=C)[C@@H]3C[C@@H]12` gave an IC50 in test [14] of 0.14 µM. Turning to `C=C1CC[C@H]2C(=C)C(=O)O[C@@H]2[C@@H]2[C@H]1[C@@H](C[C@@H]1C(=O)C3C4[C@H]1[C@H]1OC(=O)C(=C)[C@@H]1CC[C@@]4(O)CC[C@]31C(=O)C[C@H]3C(=C)CC[C@H]4C(=C)C(=O)O[C@@H]4[C@H]31)C(=O)[C@@]2(O)CC[C@@H]1C(=O)C[C@H]2C(=C)CC[C@H]3C(=C)C(=O)O[C@@H]3[C@@H]12` (some centres not stated), the IC50 in test [16], in [17], in test [18] and in test [19] was 2 µM in each case. The compound `C=C1C(=O)O[C@H]2C[C@H](C)C3=C(C[C@H]12)[C@@]1(C)C[C@@H]3C[C@@]12C(=O)O[C@H]1C=C(C)[C@H]3CC[C@@](C)(O)[C@@H]3C[C@@H]12` displayed an IC50 in test [14] of 2.03 µM. With `C[C@@H]1CC(=O)c2c3c(nc4c2[C@@]1(C)[C@H]1[C@@H](C4=O)C1(C)C)C[C@]1(C)C(=CCC[C@H]1C)C3=O`, in test [9], the EC50 worked out at 5.73 µM. For the compound `CC(=O)C1=C(Oc2oc3c(c2C)C[C@@]2(C)[C@H](CCC[C@@H]2C)[C@@H]3O)C[C@H]2CCC[C@H](C)[C@@]2(C)C1`, the IC50 in [5], in test [6] and in [7] was 11.9 µM each time.

`C=C1C(=O)O[C@H]2C[C@@H](C)C3=C(C[C@H]12)[C@@]1(C)C[C@@H]3C[C@@]12C(=O)O[C@@H]1C[C@@]3(C)[C@@H](O)C[C@@H](O)C(=C)[C@@H]3C[C@@H]12` came in with an IC50 in [14] of 0.14 µM.

Consider `C=C1CC[C@H]2C(=C)CC[C@@H]3[C@H](OC(=O)[C@H]3C[C@@]3(CC(C)=O)C(=O)O[C@@H]4[C@H]5C(C)=CCCC5(C)CC[C@H]43)[C@@H]12` (some centres not stated), for which the IC50 in test [1] amounted to 7.24 µM. Regarding `C=C1C(=O)O[C@H]2[C@@H]1CCC1=C(C)[C@H]3CC1(C[C@@]31C(=O)O[C@H]3C[C@H](C)[C@@]45C[C@@]6(C(=O)O[C@@H]7C[C@H](C)C(CCC(C)=O)=CC[C@@H]76)[C@@H](C(C)=C4C[C@@H]31)C5OC(C)=O)[C@H]2C` (some centres not stated), the IC50 in test [21] came to 1.9 µM.

For the origin of these results see ChEMBL document CHEMBL5244250, “Natural sesquiterpenoid oligomers: A chemical perspective” (Eur J Med Chem, 2020).
